A short description of data set [1]: HPLC kinetics assay: condensation of model amines with benzyloxyacetaldehyde. Conditions: 50 μM amine and aldehyde, room temperature, 2 h, above pH 6. On the procedure:
Experimental Protocol for HPLC Kinetics Assay: Reaction mixtures contained amine 4, 6, 7, or 8 (50 μM), benzyloxyacetaldehyde (50 μM), bromocresol green (10 μM), and buffer (10 mM) in a 120 μL aqueous solution containing 6.7% MeCN, which was present to solubilize the stock solution (1 mM) of benzyloxyacetaldehyde. After 2 h at room temperature, a 100 μL aliquot was analyzed by HPLC, employing a gradient of 10 to 100% acetonitrile in water over 18 min.
As described above, buffered solutions containing 50 μM amine and aldehyde were incubated at room temperature for 2 h prior to analysis by HPLC.

For data set [2] the following is noted: basic moiety of the compound (trialkylhydrazine / O-alkylaminooxy); cited from earlier work.

By pKa is commonly meant the pH at which an ionisable group is half protonated. In the case of `CNN(C)Cc1cc2ccccc2n1CCC(=O)O` [Compound 4, Piperidinium 3-(2-((1,2-dimethylhydrazinyl)methyl)-1H-indol-1-yl)propanoate], in data set [1], the “% conversion to product” value is “higher % conversion to product than the other amine nucleophiles”. Further, the pKa in data set [2] was roughly 6.56.

Source of the values: patent publication US11426465B2, “Hydrazinyl-indole compounds and methods for producing a conjugate” (Redwood Bioscience, Inc., priority 2012, dated 2022).
